Point of comparison: NC1=NCC(COc2ccccc2[N+](=O)[O-])O1 (stereo unspecified), melting point 166 °C. Against it:
- COC(=O)C(C)(Cc1c[nH]c2ccc(OC)cc12)[N+](=O)[O-] (racemic) — lower, 109 to 110 °C
- COc1cc(NC(C)=O)ccc1OCCN1CCN(c2ccccc2F)CC1 — lower, 118 to 119 °C
- COc1ccc(N2CC(=O)c3ccccc3S2)cc1O — higher, 228 to 232 °C
- Fc1ccc(-c2ncn(C3CCN4CCCC4C3)c2-c2ccncc2)cc1 (stereo unspecified) — higher, 187 to 189 °C
- CCc1nc2c(N)nc3ccccc3c2n1CCCC(C)=O — higher, 206 to 208 °C
- CC(=O)Nc1ccc([N+](=O)[O-])c(N2CCN(C(C)=O)CC2)n1 — higher, 189 to 193 °C
- Nc1ccc(Nc2cccc3c2C(=O)c2ccccc2C3=O)cc1 — higher, 175 to 182 °C
- CC[C@H](C)[C@H](NC(=O)OC(C)(C)C)C(=O)N[C@H](C(=O)N[C@@H](Cc1ccc2ccccc2c1)[C@@H](O)[C@@H](O)CC(C)C)[C@@H](C)CC — higher, 168 to 169 °C
- c1cncc(C2CCc3ccccc3O2)c1 (stereo unspecified) — lower, 59 to 60 °C
- CC(C)CC(=O)Nc1cccc(-c2ccnc3c(C(=O)c4ccoc4)cnn23)c1 — lower, 144 to 146 °C
- CCOC(=O)c1cn(-c2ccccn2)c2occc2c1=O — higher, 199 to 200 °C
- CCCCCCCCCCCCCCOc1ccc(CC(=O)Nc2cccc(I)c2)cc1 — lower, 108 to 110 °C
- Cc1cc2nc(-c3cccnc3N)n(-c3ccc(CC(=O)Nc4ccc5ncccc5c4)cc3)c2nc1-c1cccnc1 — higher, 176 to 178 °C
- c1ccc2cc3[nH]c(SCc4ncc[nH]4)nc3cc2c1 — higher, 172 °C
- CCOC(=O)c1ccc(/C=C(\C)C=O)c(OC)c1 — lower, 59 to 61 °C
- COc1ccc(C2(C#N)CCC(=O)CC2)c2c1OC(C)(C)O2 — lower, 153 to 154 °C
- CC1(C)NC(=O)N(c2ccc(Cl)c(C(F)(F)F)c2)C1=N — lower, 148 to 149 °C
- CCOCCOC(=O)C1=C(C)NC(C)=C([N+](=O)[O-])C1c1cccc([N+](=O)[O-])c1 (stereo unspecified) — lower, 140 °C
- CC(C)(C)OC(=O)C=C(O)c1cccnc1Oc1ccc(F)cc1 — lower, 87 to 89 °C
- O=C1c2ccccc2C(=O)c2c(NC(=O)C3CC3)ccc(NC(=O)C3CC3)c21 — higher, > 200 °C
- CC[C@H]1[C@@H](O)CC(=O)N1c1ccc(C#N)c(Cl)c1F — lower, 142 to 144 °C
- COCCOC(=O)C1=C(C)NC(C)C(C(=O)OC(C)C)(c2ccc(F)cc2F)C1 (stereo unspecified) — lower, 123 to 126 °C
- O=C(NC(=O)c1c(F)cccc1F)Nc1cc(Cl)cc(C(F)(F)F)c1Cl — higher, 205 to 208 °C
- C=C1C=C(Oc2cc(C(=O)O)ccc2OC)C1(F)F — lower, 163 to 165 °C
- C=CCOC(=O)C(CCn1c(=O)c2c(ncn2C)n(C)c1=O)N(C)S(=O)(=O)c1ccc(Oc2ccccc2)cc1 (stereo unspecified) — higher, 207 to 209 °C
- NCCCCCCCC1OCC2(CO1)COC(CCCCCCCN)OC2 (stereo unspecified) — lower, 74 to 75 °C
- CCN1CCCN(c2cc(Cl)ccc2C)C1=S — lower, 111 to 112 °C
- Cn1nc(N2c3cc(F)ccc3CC2C(=O)N2CCCCCC2)ccc1=O (stereo unspecified) — higher, 204 to 207 °C
- CC(NC(=O)C(O)c1cc(F)cc(F)c1)C(=O)Nc1ccc2c(c1)NC(=O)Cc1cccn1-2 (stereo unspecified) — higher, 239 to 240 °C
- O=C(O)C1=CCCN1C(=O)CCS — lower, 94 to 96 °C
- CCOC(=O)C1=C(C)NC(N)=C(C(=O)OCC)C1c1ccco1 (stereo unspecified) — higher, 183 °C
- CC1(C)OC(=O)Nc2ncc(-c3cccc(Cl)c3)cc21 — higher, 214 to 215 °C
- Fc1ccc(-c2nn3cc(C(F)(F)F)ccc3c2-c2ccnc(NC3CCCC3)n2)cc1 — lower, 155 to 156 °C
- Cc1ccc(S(=O)(=O)n2c(=O)[nH]c3cc(Cl)ccc3c2=O)cc1C — higher, > 250 °C
- COc1ccc(NN=C(Sc2ccc(OC)cc2)C(C)=O)cc1 — lower, 126 to 128 °C
- CCN(CC)CCOC1CCC2C3CCc4cc(OC)ccc4C3CCC12CC (stereo unspecified) — lower, 66 to 67 °C
- COc1ccc(-c2cncc3cccc([N+](=O)[O-])c23)c(O)c1OC — higher, 170 to 174 °C
- Nc1ccc(Cl)cc1NCC1CCCCC1 — lower, 62 °C
- Cc1nc2c3c(ccn2c1C)C(=O)CC(c1ccccc1)N3 (stereo unspecified) — lower, 138 to 140 °C
- C=C(C(=O)OC)N(Cc1cc(C)ccc1NC(=O)c1ccccc1)S(=O)(=O)c1ccc(OC)cc1 — lower, 58 to 62 °C
- O=C1c2ccccc2C2(O)Oc3c(ccc4ccccc34)C12O (stereo unspecified) — higher, 216 to 218 °C
- CCC(=O)C(Cc1cc(O)c(O)c([N+](=O)[O-])c1)C(=O)CC — lower, 126 to 131 °C
- CC(C(=O)O)c1ccc(C(=O)c2ccc(Br)o2)cc1 (stereo unspecified) — lower, 108 to 110 °C
- CCOC(=O)Cn1cc(C#N)nn1 — lower, 47 to 48 °C
- CC(=O)N(C)C(=O)Oc1cccc2c1OCO2 — lower, 48 to 50 °C
- O=C(CCCCCNC(=O)OCc1ccccc1)NCCCCCO — lower, 92.5 to 94 °C
- N[C@@H](Cc1cccc(OC(F)(F)C(F)F)c1)[C@H](O)c1ccnc(F)c1 (racemic) — lower, 119 to 120 °C
- CN1c2ccccc2[C@H]2Cc3ccccc3[C@H]21 (relative stereo) — lower, 76 to 77 °C
- Cc1cc(CCCCCOc2ccc(C3=NCCO3)cc2CO)on1 — lower, 140 to 141 °C
- O=C(OCCS(=O)(=O)CCCOCCc1ccccc1)c1ccccc1 — lower, 65.5 °C

— a melting point compilation (Tetko et al.; mined from patent text by program, amines drawn as free bases though some values may be those of a salt)
